Data reported in the NIST ThermoML archive (doi:10.1016/j.jct.2014.03.023).
± gives the expanded uncertainty stated by the source.

What was measured:
[1] = Pendant drop shape
[2] = molar heat capacity at constant pressure; conditions: 101 kPa, Liquid, Small sample (50 mg) DSC
[3] = wn = mass fraction of the nth substance listed; conditions: Pendant drop shape, w1 = 1

CC[n+]1ccc(C)cc1.O=S(=O)([N-]S(=O)(=O)C(F)(F)F)C(F)(F)F
surface tension liquid-gas ([1]; 298.2 K): 24.3 ± 0.4 mN/m | surface tension liquid-gas ([1]; 303.2 K): 23.9 ± 0.4 mN/m | surface tension liquid-gas ([1]; 313.2 K): 23.1 ± 0.4 mN/m | surface tension liquid-gas ([1]; 323.2 K): 22.2 ± 0.4 mN/m | molar heat capacity at constant pressure ([2]; 296.2 K): 627 ± 27 J/K/mol | molar heat capacity at constant pressure ([2]; 300.2 K): 634 ± 27 J/K/mol | molar heat capacity at constant pressure ([2]; 304.2 K): 637 ± 27 J/K/mol | molar heat capacity at constant pressure ([2]; 308.2 K): 640 ± 27 J/K/mol | molar heat capacity at constant pressure ([2]; 312.2 K): 644 ± 27 J/K/mol | molar heat capacity at constant pressure ([2]; 316.2 K): 647 ± 27 J/K/mol | molar heat capacity at constant pressure ([2]; 320.2 K): 649 ± 28 J/K/mol | molar heat capacity at constant pressure ([2]; 324.2 K): 652 ± 28 J/K/mol | molar heat capacity at constant pressure ([2]; 328.2 K): 655 ± 28 J/K/mol | molar heat capacity at constant pressure ([2]; 332.2 K): 659 ± 28 J/K/mol | molar heat capacity at constant pressure ([2]; 336.2 K): 665 ± 28 J/K/mol | molar heat capacity at constant pressure ([2]; 340.2 K): 669 ± 28 J/K/mol | molar heat capacity at constant pressure ([2]; 344.2 K): 674 ± 29 J/K/mol | molar heat capacity at constant pressure ([2]; 348.2 K): 679 ± 29 J/K/mol | molar heat capacity at constant pressure ([2]; 352.2 K): 685 ± 29 J/K/mol | molar heat capacity at constant pressure ([2]; 356.2 K): 691 ± 29 J/K/mol | molar heat capacity at constant pressure ([2]; 360.2 K): 697 ± 30 J/K/mol | molar heat capacity at constant pressure ([2]; 364.2 K): 703 ± 30 J/K/mol | molar heat capacity at constant pressure ([2]; 368.2 K): 708 ± 30 J/K/mol | molar heat capacity at constant pressure ([2]; 372.2 K): 715 ± 30 J/K/mol

CCn1cc[n+](C)c1.N#CN=C=[N-] [1-ethyl-3-methylimidazolium dicyanamide]
surface tension liquid-gas ([1]; 298.2 K): 56.4 ± 0.9 mN/m | surface tension liquid-gas ([1]; 303.2 K): 56 ± 0.9 mN/m | surface tension liquid-gas ([1]; 313.2 K): 54.8 ± 0.9 mN/m | surface tension liquid-gas ([1]; 323.2 K): 53.5 ± 0.8 mN/m

CCn1cc[n+](C)c1.N#CN=C=[N-] [1-ethyl-3-methylimidazolium dicyanamide] + CC[n+]1ccc(C)cc1.O=S(=O)([N-]S(=O)(=O)C(F)(F)F)C(F)(F)F
surface tension liquid-gas ([3]; 298.2 K): 56.4 ± 0.9 mN/m | surface tension liquid-gas ([3]; 303.2 K): 56 ± 0.9 mN/m | surface tension liquid-gas ([3]; 313.2 K): 54.8 ± 0.9 mN/m | surface tension liquid-gas ([3]; 323.2 K): 53.5 ± 0.8 mN/m
